Experimental data: patent US20240083853A1, “HSD17B13 INHIBITORS AND USES THEREOF” (FL2022-001, Inc., priority 2020, published 2024)

What follows are compounds tested against T1, Recombinant human HSD17B13 enzyme (Homo sapiens, UniProt Q7Z5P4) (assay: HSD17b13 NAD(P)H-Glo biochemical assay). Settings: 50 uM estradiol, 1 mM NAD+, NAD(P)H-Glo luminescence; read-out: HSD17β13 IC50.
T1 sequence (Q7Z5P4 20-300): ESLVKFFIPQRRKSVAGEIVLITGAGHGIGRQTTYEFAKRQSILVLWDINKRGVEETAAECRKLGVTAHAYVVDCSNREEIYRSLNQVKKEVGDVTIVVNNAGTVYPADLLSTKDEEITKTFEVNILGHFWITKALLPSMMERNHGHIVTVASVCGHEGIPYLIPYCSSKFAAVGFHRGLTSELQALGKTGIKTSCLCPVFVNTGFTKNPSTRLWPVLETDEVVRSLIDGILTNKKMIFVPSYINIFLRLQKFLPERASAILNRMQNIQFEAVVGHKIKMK
Description: Example B-1: HSD17b13 NAD(P)H-Glo Biochemical Assay
Recombinant human HSD17B13 enzyme. Substrate: estradiol (Sigma β-Estradiol E8875), 100 mM in DMSO. Cofactor: NAD+ Grade I free acid (Sigma 10127965001), 20 mM in H2O. Assay buffer final concentration: 20 mM Tris pH7.4 with 0.002% Tween-20 and 0.02% BSA. Assay performed in 384 well solid bottom plate (Corning 3570). Enzymatic activity detected by NAD(P)H-Glo™ Detection System (Promega G9062).
Inhibitor compounds were serially diluted in DMSO and then further diluted in assay buffer to a 10× concentration consisting of 1% DMSO.
HSD17b13 enzyme was diluted in 1× assay buffer to the desired enzyme concentration based on the specific activity of the enzyme lot. 20 uL of diluted enzyme was added to each well along with 2.5 uL of 10× inhibitor solution. Assay plate was incubated at RT for 20 minutes, and then 2.5 uL of a 10× substrate/cofactor mix was added to each well for a final concentration of 50 uM estradiol and 1 mM NAD+. Assay plate was incubated at 37° C. for 3 hours. NAD(P)H-Glo™ Detection System reagents were prepared according to manufacturer's specifications, and 25 uL was added to each well. After incubating for 1 hour at RT, luminescence was measured.

SMILES | IC50 [nM]
C[C@H]1CN(c2ccc(-n3ncc4cc(F)c(O)c(F)c43)cc2)C[C@H](C)O1 (relative stereo) [Compound 20, 1-(4-(trans-2,6-Dimethylmorpholino)phenyl)-5,7-difluoro-1H-indazol-6-ol] | < 100
C[C@H]1CN(c2ccc(-n3ncc4cc(F)c(O)c(F)c43)cc2)C[C@H](C)S1 (relative stereo) [Compound 32.5, 1-(4-(trans-2,6-Dimethylthiomorpholino)phenyl)-5,7-difluoro-1H-indazol-6-ol] | < 100
Oc1ccc(-c2ccc(-n3ncc4ccc(O)cc43)cc2)cc1 [Compound 1, 1-(4′-Hydroxy-[1,1′-biphenyl]-4-yl)-1H-indazol-6-ol] | 100 to 1000
Oc1cccc(-c2ccc(-n3ncc4cc(F)c(O)cc43)cc2)c1 [Compound 2, 5-Fluoro-1-(3′-hydroxy-[1,1′-biphenyl]-4-yl)-1H-indazol-6-ol] | 100 to 1000
Oc1ccc(-c2ccc(-n3ncc4cc(F)c(O)cc43)cc2)cc1 [Compound 2.1, 5-Fluoro-1-(4′-hydroxy-[1,1′-biphenyl]-4-yl)-1H-indazol-6-ol] | 100 to 1000
Oc1cc2c(cnn2-c2ccc(-c3ccccc3)cc2)cc1F [Compound 2.2, 1-([1,1′-Biphenyl]-4-yl)-5-fluoro-1H-indazol-6-ol] | 100 to 1000
Oc1cc2c(cnn2-c2ccc(Oc3ccccc3)cc2)cc1F [Compound 2.3, 5-Fluoro-1-(4-phenoxyphenyl)-1H-indazol-6-o1] | 100 to 1000
Oc1ccc(-c2ccc(-n3ncc4ccc(O)c(F)c43)cc2)cc1 [Compound 2.4, 7-Fluoro-1-(4′-hydroxy-[1,1′-biphenyl]-4-yl)-1H-indazol-6-ol] | 100 to 1000
Oc1ccc(-c2ccc(-n3ncc4cc(Cl)c(O)cc43)cc2)cc1 [Compound 2.5, 5-Chloro-1-(4′-hydroxy-[1,1′-biphenyl]-4-yl)-1H-indazol-6-ol] | 100 to 1000
Oc1cccc(-c2ccc(-n3ncc4cc(Cl)c(O)cc43)cc2)c1 [Compound 2.6, 5-Chloro-1-(3′-hydroxy-[1,1′-biphenyl]-4-yl)-1H-indazol-6-ol] | 1000 to 30000
Oc1ccc(-c2ccc(-n3ncc4c(F)cc(O)cc43)cc2)cc1 [Compound 2.7, 4-Fluoro-1-(4′-hydroxy-[1,1′-biphenyl]-4-yl)-1H-indazol-6-ol] | 100 to 1000
Oc1cccc(-c2ccc(-n3ncc4c(F)cc(O)cc43)cc2)c1 [Compound 2.8, 4-Fluoro-1-(3′-hydroxy-[1,1′-biphenyl]-4-yl)-1H-indazol-6-ol] | 1000 to 30000
Oc1cc(F)c2cnn(-c3ccc(-c4cccc(O)c4Br)cc3)c2c1 [Compound 2.9, 1-(2′-Bromo-3′-hydroxy-[1,1′-biphenyl]-4-yl)-4-fluoro-1H-indazol-6-ol] | 1000 to 30000
Oc1cc2c(cnn2-c2ccc(Nc3ccccc3)cc2)cc1F [Compound 3, 5-Fluoro-1-(4-(phenylamino)phenyl)-1H-indazol-6-ol] | 100 to 1000
Oc1cccc(-c2ccc(-n3ncc4c(C(F)(F)F)c(F)c(O)cc43)cc2)c1 [Compound 4, 5-Fluoro-1-(3′-hydroxy-[1,1′-biphenyl]-4-yl)-4-(trifluoromethyl)-1H-indazol-6-ol] | 100 to 1000
CS(=O)(=O)N1CCN(c2ccc(-n3ncc4c(C(F)(F)F)c(F)c(O)cc43)cc2)CC1 [Compound 4.1, 5-Fluoro-1-(4-(4-(methylsulfonyl)piperazin-1-yl)phenyl)-4-(trifluoromethyl)-1H-indazol-6-ol] | 100 to 1000
Cc1c(F)c(O)cc2c1cnn2-c1ccc(-c2cccc(O)c2)cc1 [Compound 4.2, 5-Fluoro-1-(3′-hydroxy-[1,1′-biphenyl]-4-yl)-4-methyl-1H-indazol-6-ol] | 100 to 1000
Cc1c(O)c(F)cc2cnn(-c3ccc(-c4cccc(O)c4)cc3)c12 [Compound 4.3, 5-Fluoro-1-(3′-hydroxy-[1,1′-biphenyl]-4-yl)-7-methyl-1H-indazol-6-ol] | 100 to 1000
Oc1cccc(-c2ccc(-n3ncc4c(Cl)c(F)c(O)cc43)cc2)c1 [Compound 5, 4-Chloro-5-fluoro-1-(3′-hydroxy-[1,1′-biphenyl]-4-yl)-1H-indazol-6-ol] | 100 to 1000
CS(=O)(=O)N1CCN(c2ccc(-n3ncc4c(Cl)c(F)c(O)cc43)cc2)CC1 [Compound 5.1, 4-Chloro-5-fluoro-1-(4-(4-(methylsulfonyl)piperazin-1-yl)phenyl)-1H-indazol-6-ol] | 100 to 1000

SMILES | IC50 [nM]
CC1(C)CCN(c2ccc(-n3ncc4c(Cl)c(F)c(O)cc43)cc2)CC1 [Compound 5.2, 4-Chloro-1-(4-(4,4-dimethylpiperidin-1-yl)phenyl)-5-fluoro-1H-indazol-6-ol] | 100 to 1000
Oc1cccc(-c2ccc(-n3nc(F)c4cc(F)c(O)cc43)cc2)c1 [Compound 5.3, 3,5-Difluoro-1-(3′-hydroxy-[1,1′-biphenyl]-4-yl)-1H-indazol-6-ol] | 100 to 1000
Oc1cccc(-c2ccc(-n3nc(F)c4cc(F)c(O)c(F)c43)cc2)c1 [Compound 5.4, 3,5,7-Trifluoro-1-(3′-hydroxy-[1,1′-biphenyl]-4-yl)-1H-indazol-6-ol] | 100 to 1000
CS(=O)(=O)N1CCN(c2ccc(-n3nc(F)c4cc(F)c(O)c(F)c43)cc2)CC1 [Compound 6, 3,5,7-Trifluoro-1-(4-(4-(methylsulfonyl)piperazin-1-yl)phenyl)-1H-indazol-6-ol] | 100 to 1000
CC1(C)CCN(c2ncc(-n3ncc4cc(F)c(O)c(F)c43)cn2)CC1 [Compound 6.1, 1-(2-(4,4-Dimethylpiperidin-1-yl)pyrimidin-5-yl)-5,7-difluoro-1H-indazol-6-ol] | < 100
CC1(C)CCN(c2ccc(-n3ccc4cc(F)c(O)c(F)c43)cc2)CC1 [Compound 6.2, 1-(4-(4,4-Dimethylpiperidin-1-yl)phenyl)-5,7-difluoro-1H-indol-6-ol] | 100 to 1000
CS(=O)(=O)N1CCN(c2ncc(-n3ncc4cc(F)c(O)c(F)c43)cn2)CC1 [Compound 7, 5,7-Difluoro-1-(2-(4-(methylsulfonyl)piperazin-1-yl)pyrimidin-5-yl)-1H-indazol-6-ol] | 100 to 1000
CC1(C)CCN(c2ccc(-n3ncc4c(C#N)c(F)c(O)cc43)cc2)CC1 [Compound 7.1, 1-(4-(4,4-Dimethylpiperidin-1-yl)phenyl)-5-fluoro-6-hydroxy-1H-indazole-4-carbonitrile] | 100 to 1000
CC1(C)CCN(c2ccc(N3C(=O)C(=O)c4cc(F)c(O)c(F)c43)cc2)CC1 [Compound 7.2, 1-(4-(4,4-Dimethylpiperidin-1-yl)phenyl)-5,7-difluoro-6-hydroxyindoline-2,3-dione] | 100 to 1000
CC1(C)CCN(c2ccc(-n3c(=O)sc4cc(F)c(O)c(F)c43)cc2)CC1 [Compound 7.3, 3-(4-(4,4-Dimethylpiperidin-1-yl)phenyl)-4,6-difluoro-5-hydroxybenzo[d]thiazol-2(3H)-one] | 100 to 1000
CC1(C)CCN(c2ccc(-n3ncc4c(C(F)(F)F)c(F)c(O)nc43)cc2)CC1 [Compound 7.4, 1-(4-(4,4-Dimethylpiperidin-1-yl)phenyl)-5-fluoro-4-(trifluoromethyl)-1H-pyrazolo[3,4-b]pyridin-6-ol] | 1000 to 30000
Oc1cccc(-c2ccc(-n3ncc4c(F)c(F)c(O)cc43)cc2)c1 [Compound 8, 4,5-Difluoro-1-(3′-hydroxy-[1,1′-biphenyl]-4-yl)-1H-indazol-6-ol] | 100 to 1000
Oc1ccc(-c2ccc(-n3cnc4cc(F)c(O)cc43)cc2)cc1 [Compound 9, 5-Fluoro-1-(4′-hydroxy-[1,1′-biphenyl]-4-yl)-1H-benzo[d]imidazol-6-ol] | < 100
Oc1ccc(-c2ccc(-n3nnc4cc(F)c(O)cc43)cc2)cc1 [Compound 10, 5-Fluoro-1-(4′-hydroxy-[1,1′-biphenyl]-4-yl)-1H-benzo[d][1,2,3]triazol-6-ol] | < 100
CC1(C)CCN(c2ccc(-n3c(=O)[nH]c4cc(F)c(O)c(F)c43)cc2)CC1 [Compound 11, 1-(4-(4,4-Dimethylpiperidin-1-yl)phenyl)-5,7-difluoro-6-hydroxy-1H-benzo[d]imidazol-2(3H)-one] | < 100
CCn1c(=O)n(-c2ccc(N3CCC(C)(C)CC3)cc2)c2c(F)c(O)c(F)cc21 [Compound 12, 3-(4-(4,4-Dimethylpiperidin-1-yl)phenyl)-1-ethyl-4,6-difluoro-5-hydroxy-1H-benzo[d]imidazol-2(3H)-one] | 100 to 1000
Oc1c(F)cc2cnn(-c3ccc(-c4ccc(Cl)cc4)cc3)c2c1F [Compound 13, 1-(4′-Chloro-[1,1′-biphenyl]-4-yl)-5,7-difluoro-1H-indazol-6-ol] | < 100
Oc1ccc(-c2ccc(-n3ncc4cc(F)c(O)c(F)c43)cc2)cc1 [Compound 13.1, 5,7-Difluoro-1-(4′-hydroxy-[1,1′-biphenyl]-4-yl)-1H-indazol-6-ol] | < 100
Oc1cc2c(cnn2-c2ccc(-c3ccccc3O)cc2)cc1F [Compound 13.2, 5-Fluoro-1-(2′-hydroxy-[1,1′-biphenyl]-4-yl)-1H-indazol-6-ol] | 100 to 1000
